Key:
[1] = tested on: maternally separated mice; assay: Contextual fear conditioning in early-life stress mice; format: in vivo; settings: early-life stressed mice
Method: At postnatal day 1, pups were culled to have 6 pups per mother. From postnatal day 1 to 14, unpredictable maternal separation (MS) of a period of 3 hours daily was carried out. Maternal separation was performed at random times (from 8 am to 2 pm) to avoid the habituation of the mother to the procedure. The protocol consisted of removing pups from their mother to another cage at room temperature for a 3 hour period, after which the pups were returned to their original nest. These groups are denoted as early-life stress in the figures. A control group of dam/pups was left undisturbed and is denoted in the figures as normal.
One week after maternal separation mice were separated into two groups. […]
Contextual fear conditioning was used to determine the effects of the ellagitannin punicalagin on the susceptibility of adult animals, subjected to early life stress, to anxiety. […] Animal behavior was monitored every 2 seconds throughout the duration of the experiment. The period that mice spent immobile in the chamber was considered as “freezing” and was scored throughout these periods. The time the mice spent immobile after the first shock was recorded for a 60 second period and expressed as a percentage. […]

normal mice = assay: Treadmill endurance test in normal mice; format: in vivo; settings: 55 mg/kg/day in food, 6 weeks of treatment (FIG. 49)
Method: Normal 8-week-old mice were acclimated for 2 weeks prior to the start of the study. Mice were fed with a standard rodent diet (chow diet) or a diet containing urolithin A mixed with the food to reach a dosing of 55 mg/kg/day delivered to the mice. Following 6 weeks of treatment, mice were tested for their muscle performance by means of an endurance test.
An endurance test was performed using a variable speed belt treadmill enclosed in a plexiglass chamber with a stimulus device consisting of a shock grid attached to the rear of the belt (Panlab, Barcelona, Spain). Mice were run at 10 cm/sec and a 0° of incline for 5 min. Speed was then incremented by 2 cm/sec every 5 min, until mice were exhausted. The distance run and the number of shocks obtained over 5 min intervals were recorded. Mice were considered exhausted and removed from the experiment when they received approximately 20 shocks in a period of 1 min. Control untreated and urolithin A-treated mice were tested and compared for their performance.
Improved muscle performance and endurance is reflected by an ability to run at higher speeds on the treadmill. Mice will seek to avoid the shock and will run despite the increasing speed. At a certain point the mice are unable to keep up with the treadmill speed and are shocked. After reaching the threshold levels of shocks, mice are removed from the treadmill. […]

Row | Structure (SMILES) | freezing time after the first foot shock (anxiety level) ([1]; 90 mg/kg/day in food, 60 second period (FIG. 42)) | extinction of contextual recall (freezing as percent of day 1) ([1]; 90 mg/kg/day, 12 days, reduced freezing between days 8 and 12 (FIG. 43)) | muscle performance and endurance, treadmill speed (normal mice)
1 | O=C1O[C@H]2[C@@H]3OC(=O)c4cc(O)c(O)c(O)c4-c4c(O)c(O)c5oc(=O)c6c(c(O)c(O)c7oc(=O)c4c5c76)-c4c(cc(O)c(O)c4O)C(=O)OC[C@H]3OC(O)[C@@H]2OC(=O)c2cc(O)c(O)c(O)c2-c2c1cc(O)c(O)c2O (mixture of isomers) [punicalagin, 2,3 hexahydroxydiphenoyl-4,6-gallagylglucose] | decreased and normalized these elevated anxiety levels | faster extinction than untreated early-life stressed mice | 
2 | O=c1oc2cc(O)ccc2c2ccc(O)cc12 [urolithin A, 3,8-Dihydroxydibenzo-α-pyrone] |  |  | ran at higher speeds than untreated control mice

— patent US11234960B2, “Compositions and methods for improving mitochondrial function and treating neurodegenerative diseases and cognitive disorders” (Amazentis SA, priority 2010, dated 2022)
